Numbers after ± are expanded uncertainties.
Tests used:
[1] = xn = mol fraction of the nth substance listed; details: 100.8 kPa, Liquid; for viscosity: Falling or rolling sphere viscometry
[2] = refractive index (Na D-line) (dimensionless); xn = mol fraction of the nth substance listed; details: 100.8 kPa, Liquid, Standard Abbe refractometry

CC(C)(C)O [2-methylpropan-2-ol] + CCO
Details	mass density, 298.15 K [kg/m3]	mass density, 308.15 K [kg/m3]	mass density, 318.15 K [kg/m3]	refractive index, 298.15 K	refractive index, 308.15 K	refractive index, 318.15 K	viscosity, 298.15 K [mPa·s]	viscosity, 308.15 K [mPa·s]	viscosity, 318.15 K [mPa·s]
[1], x2 = 0	780.99 ± 0.31	770.7 ± 0.31	760.05 ± 0.32	–	–	–	4.43 ± 0.04	2.622 ± 0.027	1.708 ± 0.02
[1], x2 = 0.05	782.27 ± 0.3	772.23 ± 0.31	761.94 ± 0.31	–	–	–	4.295 ± 0.039	2.587 ± 0.026	1.73 ± 0.02
[1], x2 = 0.1	782.82 ± 0.3	772.95 ± 0.3	762.82 ± 0.31	–	–	–	4.135 ± 0.037	2.536 ± 0.025	1.719 ± 0.019
[1], x2 = 0.15	783.19 ± 0.29	773.6 ± 0.3	763.53 ± 0.3	–	–	–	3.949 ± 0.035	2.463 ± 0.025	1.698 ± 0.019
[1], x2 = 0.2	783.47 ± 0.29	774.03 ± 0.29	764.14 ± 0.3	–	–	–	3.752 ± 0.033	2.374 ± 0.024	1.662 ± 0.019
[1], x2 = 0.25	783.65 ± 0.29	774.34 ± 0.29	764.59 ± 0.3	–	–	–	3.552 ± 0.032	2.277 ± 0.023	1.618 ± 0.018
[1], x2 = 0.3	783.81 ± 0.28	774.62 ± 0.29	765.01 ± 0.29	–	–	–	3.348 ± 0.03	2.18 ± 0.022	1.568 ± 0.018
[1], x2 = 0.35	783.94 ± 0.28	774.87 ± 0.28	765.41 ± 0.29	–	–	–	3.134 ± 0.028	2.082 ± 0.021	1.515 ± 0.017
[1], x2 = 0.4	784.03 ± 0.28	775.07 ± 0.28	765.74 ± 0.29	–	–	–	2.905 ± 0.026	1.978 ± 0.02	1.456 ± 0.017
[1], x2 = 0.45	784.11 ± 0.27	775.29 ± 0.28	766.04 ± 0.28	–	–	–	2.668 ± 0.024	1.877 ± 0.019	1.395 ± 0.017
[1], x2 = 0.5	784.18 ± 0.27	775.45 ± 0.27	766.31 ± 0.28	–	–	–	2.462 ± 0.023	1.772 ± 0.019	1.332 ± 0.016
[1], x2 = 0.55	784.29 ± 0.27	775.61 ± 0.27	766.58 ± 0.28	–	–	–	2.272 ± 0.021	1.675 ± 0.018	1.272 ± 0.016
[1], x2 = 0.6	784.32 ± 0.26	775.68 ± 0.27	766.72 ± 0.27	–	–	–	2.097 ± 0.02	1.575 ± 0.017	1.213 ± 0.015
[1], x2 = 0.65	784.4 ± 0.26	775.77 ± 0.27	766.87 ± 0.27	–	–	–	1.934 ± 0.019	1.475 ± 0.017	1.153 ± 0.015
[1], x2 = 0.7	784.42 ± 0.26	775.85 ± 0.26	767.01 ± 0.27	–	–	–	1.782 ± 0.018	1.38 ± 0.016	1.092 ± 0.015
[1], x2 = 0.75	784.49 ± 0.26	775.93 ± 0.26	767.15 ± 0.27	–	–	–	1.644 ± 0.017	1.291 ± 0.016	1.032 ± 0.014
[1], x2 = 0.8	784.62 ± 0.25	776.07 ± 0.26	767.27 ± 0.26	–	–	–	1.518 ± 0.017	1.206 ± 0.015	0.974 ± 0.014
[1], x2 = 0.85	784.75 ± 0.25	776.18 ± 0.26	767.41 ± 0.26	–	–	–	1.4 ± 0.016	1.126 ± 0.015	0.919 ± 0.014
[1], x2 = 0.9	784.86 ± 0.25	776.28 ± 0.25	767.51 ± 0.26	–	–	–	1.285 ± 0.015	1.048 ± 0.014	0.862 ± 0.014
[1], x2 = 0.95	785.02 ± 0.25	776.4 ± 0.25	767.6 ± 0.26	–	–	–	1.188 ± 0.015	0.976 ± 0.014	0.805 ± 0.013
[2], x2 = 0	–	–	–	1.38481 ± 0.00033	1.3796 ± 0.00033	1.37416 ± 0.00033	–	–	–
[2], x2 = 0.05	–	–	–	1.38427 ± 0.00033	1.37911 ± 0.00033	1.37378 ± 0.00033	–	–	–
[2], x2 = 0.1	–	–	–	1.38367 ± 0.00033	1.37861 ± 0.00033	1.37336 ± 0.00033	–	–	–
[2], x2 = 0.15	–	–	–	1.38294 ± 0.00032	1.37797 ± 0.00032	1.37284 ± 0.00032	–	–	–
[2], x2 = 0.2	–	–	–	1.38213 ± 0.00032	1.37726 ± 0.00032	1.37224 ± 0.00032	–	–	–
[2], x2 = 0.25	–	–	–	1.38123 ± 0.00032	1.37648 ± 0.00032	1.3715 ± 0.00032	–	–	–
[2], x2 = 0.3	–	–	–	1.38027 ± 0.00032	1.37558 ± 0.00032	1.37072 ± 0.00032	–	–	–
[2], x2 = 0.35	–	–	–	1.37923 ± 0.00032	1.37463 ± 0.00032	1.36984 ± 0.00032	–	–	–
[2], x2 = 0.4	–	–	–	1.37813 ± 0.00032	1.3736 ± 0.00032	1.36891 ± 0.00032	–	–	–
[2], x2 = 0.45	–	–	–	1.37698 ± 0.00032	1.37253 ± 0.00032	1.36791 ± 0.00032	–	–	–
[2], x2 = 0.5	–	–	–	1.37576 ± 0.00032	1.37136 ± 0.00032	1.36682 ± 0.00032	–	–	–
[2], x2 = 0.55	–	–	–	1.37449 ± 0.00032	1.37013 ± 0.00032	1.36567 ± 0.00032	–	–	–
[2], x2 = 0.6	–	–	–	1.37312 ± 0.00032	1.36883 ± 0.00032	1.36442 ± 0.00032	–	–	–
[2], x2 = 0.65	–	–	–	1.37171 ± 0.00032	1.36741 ± 0.00032	1.36304 ± 0.00032	–	–	–
[2], x2 = 0.7	–	–	–	1.37018 ± 0.00032	1.36593 ± 0.00032	1.36162 ± 0.00032	–	–	–
[2], x2 = 0.75	–	–	–	1.36859 ± 0.00032	1.36438 ± 0.00032	1.36007 ± 0.00032	–	–	–
[2], x2 = 0.8	–	–	–	1.3669 ± 0.00032	1.36271 ± 0.00032	1.35848 ± 0.00032	–	–	–
[2], x2 = 0.85	–	–	–	1.36515 ± 0.00031	1.36096 ± 0.00031	1.35677 ± 0.00031	–	–	–
[2], x2 = 0.9	–	–	–	1.36332 ± 0.00031	1.35914 ± 0.00031	1.35498 ± 0.00031	–	–	–
[2], x2 = 0.95	–	–	–	1.36137 ± 0.00031	1.3572 ± 0.00031	1.35308 ± 0.00031	–	–	–
